Where two headings read alike, the source gives them in different places.
Columns and labels:
PC-9 = assay: Cell proliferation assay, PC-9 cells (CellTiter-Glo, 72 hours); type: cell-based; details: PC9 cells
Protocol: (§1) Biological Example 2: Cell Proliferation Assays
(§2) Ba/F3 cells expressing EGFR mutations were seeded in 384-well plates at 5000 cells/well in RPMI1640 medium containing […]. PC-9 at 500 cells/well was seeded into 384-well plates in RPMI1640 medium with 10% FBS. After overnight incubation, the assay plates were dosed with compounds at a series of concentrations. Alongside dosing the assay plates, the day 0 plate was processed using CellTiter-Glo® Luminescent Cell Viability Assay (Promega) to measure the number of viable cells (G0). The assay plates were further incubated for 72 hours and the number of viable cells (G3) was measured. The percentage of proliferation was calculated as: […]=100×(G3 value of sample well−G0 value)/(G3 value of DMSO control−G0 value). The concentration of compound producing 50% proliferation inhibition (GI50) was further calculated in best-fit curves using XLFit software. N/A=not available.

[1] = tested on: Ba/F3 cells expressing EGFR mutations; assay: Cell proliferation assay, Ba/F3 cells expressing EGFR mutations (CellTiter-Glo, 72 hours); type: cell-based
Protocol: as §1, §2

EGFR L858R/T790M = target: T1, EGFR L858R/T790M (Homo sapiens, UniProt P00533, L858R/T790M); assay: Inhibition of EGFR L858R/T790M biochemical enzymatic activity (HTRF); details: EGFR L858R/T790M, 1 mM ATP, 1 h at room temperature, read-out: IC50 @L858R-T790M
T1 construct: purchased Carna Bio
T1 sequence (P00533 25-1210 T790M/L858R): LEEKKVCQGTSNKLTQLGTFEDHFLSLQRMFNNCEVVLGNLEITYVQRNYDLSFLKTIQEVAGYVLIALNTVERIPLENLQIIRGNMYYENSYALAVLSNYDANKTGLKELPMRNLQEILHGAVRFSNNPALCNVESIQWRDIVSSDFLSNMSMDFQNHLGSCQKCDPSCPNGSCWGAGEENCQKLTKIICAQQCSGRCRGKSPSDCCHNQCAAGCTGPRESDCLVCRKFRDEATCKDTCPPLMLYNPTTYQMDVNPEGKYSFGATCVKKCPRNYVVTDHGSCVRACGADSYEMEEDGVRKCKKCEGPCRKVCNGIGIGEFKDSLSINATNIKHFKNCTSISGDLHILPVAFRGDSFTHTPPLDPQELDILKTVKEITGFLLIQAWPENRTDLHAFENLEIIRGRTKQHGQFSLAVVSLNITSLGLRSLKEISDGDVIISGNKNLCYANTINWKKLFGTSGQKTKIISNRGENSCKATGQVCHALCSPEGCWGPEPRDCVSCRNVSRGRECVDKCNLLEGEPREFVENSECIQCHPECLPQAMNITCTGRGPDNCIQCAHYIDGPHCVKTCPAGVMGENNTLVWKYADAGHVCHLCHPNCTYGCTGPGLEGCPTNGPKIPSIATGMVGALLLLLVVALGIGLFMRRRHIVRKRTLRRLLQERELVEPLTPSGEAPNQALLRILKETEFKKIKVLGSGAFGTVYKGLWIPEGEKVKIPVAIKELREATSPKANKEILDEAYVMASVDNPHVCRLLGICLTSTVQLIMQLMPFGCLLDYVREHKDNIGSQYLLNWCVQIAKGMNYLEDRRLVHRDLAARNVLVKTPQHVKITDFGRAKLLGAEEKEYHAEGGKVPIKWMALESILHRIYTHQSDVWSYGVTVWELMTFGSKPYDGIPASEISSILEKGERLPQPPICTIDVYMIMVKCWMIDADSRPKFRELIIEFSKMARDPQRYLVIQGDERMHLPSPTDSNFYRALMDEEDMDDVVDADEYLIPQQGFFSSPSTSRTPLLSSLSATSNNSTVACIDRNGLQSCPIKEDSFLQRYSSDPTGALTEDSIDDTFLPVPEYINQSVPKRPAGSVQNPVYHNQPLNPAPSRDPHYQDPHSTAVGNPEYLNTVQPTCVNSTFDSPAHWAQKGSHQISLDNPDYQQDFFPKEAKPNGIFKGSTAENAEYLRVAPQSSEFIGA
Protocol: (§3) Biological Example 1: Inhibition of EGFR WT and Mutant Biochemical Enzymatic Activity
(§4) The inhibition potency of compounds against these enzymes was assessed using Homogenous Time Resolved Fluorescence approach (HTRF, CisBio. Cat No. 62TKOPEJ).
(§5) Inhibitory effects of the compounds were determined by measuring the enzymatic activity of EGFR enzyme phosphorylates 1 μM TK Substrate-biotin in the presence of 1 mM adenosine-5′-triphosphate (ATP) and varying concentrations of the test compound. The enzyme reaction buffer contains 5 mM MgCl2, 1 mM MnC12, 0.01% CHAPS, 1 mM dithiothreitol (DTT), 0.5% dimethylsulfoxide (DMSO), and 1× supplemented enzymatic buffer. The WT and mutant EGFR enzymes (SignalChem) were added to plates containing inhibitors, followed by activation of the kinase reaction by addition of ATP and peptide substrates. After incubation for 1 h at room temperature, the reaction was stopped by the addition of the detection reagent mix containing EDTA. The fluorescence was measured at 615 nm and 665 nm, respectively with excitation wavelength at 320 nm. The calculated signal ratio of 665 nm/615 nm is proportional to the kinase activity. The concentration of compound producing 50% inhibition of the respective kinase (IC50) was calculated using four-parameter logistic fit with XL-FIT.

EGFR L858R = target: T2, EGFR L858R (Homo sapiens, UniProt P00533, L858R); assay: Inhibition of EGFR L858R biochemical enzymatic activity (HTRF); details: 1 mM ATP, 1 h at room temperature, read-out: IC50 @L858R
T2 construct: purchased Carna Bio
T2 sequence (P00533 25-1210 L858R): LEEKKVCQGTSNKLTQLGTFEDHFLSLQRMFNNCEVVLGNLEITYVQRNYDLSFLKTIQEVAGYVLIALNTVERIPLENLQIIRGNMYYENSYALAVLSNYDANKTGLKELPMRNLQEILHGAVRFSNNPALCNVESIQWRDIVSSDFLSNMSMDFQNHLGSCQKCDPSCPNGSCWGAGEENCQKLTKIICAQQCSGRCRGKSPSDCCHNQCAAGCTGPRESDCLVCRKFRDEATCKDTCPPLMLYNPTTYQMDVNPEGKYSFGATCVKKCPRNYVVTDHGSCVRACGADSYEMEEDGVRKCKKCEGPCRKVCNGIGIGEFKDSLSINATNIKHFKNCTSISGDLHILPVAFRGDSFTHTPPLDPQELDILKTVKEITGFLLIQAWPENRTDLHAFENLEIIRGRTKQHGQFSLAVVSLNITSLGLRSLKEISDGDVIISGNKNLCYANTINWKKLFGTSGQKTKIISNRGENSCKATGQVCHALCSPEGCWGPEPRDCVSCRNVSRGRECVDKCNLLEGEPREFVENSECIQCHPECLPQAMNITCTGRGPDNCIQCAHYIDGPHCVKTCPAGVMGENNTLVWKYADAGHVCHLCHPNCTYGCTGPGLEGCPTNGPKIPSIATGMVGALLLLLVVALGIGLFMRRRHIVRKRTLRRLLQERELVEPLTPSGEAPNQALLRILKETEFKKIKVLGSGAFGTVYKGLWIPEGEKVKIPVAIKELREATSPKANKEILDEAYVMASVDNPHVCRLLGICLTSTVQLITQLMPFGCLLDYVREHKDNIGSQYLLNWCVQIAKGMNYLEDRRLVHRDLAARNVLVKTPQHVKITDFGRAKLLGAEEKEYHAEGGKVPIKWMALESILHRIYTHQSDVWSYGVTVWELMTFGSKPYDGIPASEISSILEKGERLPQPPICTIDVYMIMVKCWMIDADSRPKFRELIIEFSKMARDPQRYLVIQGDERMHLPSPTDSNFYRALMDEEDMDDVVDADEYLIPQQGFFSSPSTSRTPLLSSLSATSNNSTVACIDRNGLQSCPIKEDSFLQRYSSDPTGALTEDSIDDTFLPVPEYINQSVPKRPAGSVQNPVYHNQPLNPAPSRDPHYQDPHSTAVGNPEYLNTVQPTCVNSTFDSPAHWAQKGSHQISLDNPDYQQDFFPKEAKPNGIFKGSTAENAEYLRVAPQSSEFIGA
Protocol: as §3, §4, §5

EGFR (d746-750 C797S) = target: T3, EGFR (d746-750 C797S) (Homo sapiens, UniProt P00533, C797S/DEL746-750); assay: Inhibition of EGFR (d746-750 C797S) biochemical enzymatic activity (HTRF); details: EGFR (d746-750 C797S), 1 mM ATP, 1 h at room temperature, read-out: IC50 @Del19-C797S
T3 construct: purchased signalchem
T3 sequence (P00533 with tags, fused parts or gaps DEL746-750/C797S limits assumed): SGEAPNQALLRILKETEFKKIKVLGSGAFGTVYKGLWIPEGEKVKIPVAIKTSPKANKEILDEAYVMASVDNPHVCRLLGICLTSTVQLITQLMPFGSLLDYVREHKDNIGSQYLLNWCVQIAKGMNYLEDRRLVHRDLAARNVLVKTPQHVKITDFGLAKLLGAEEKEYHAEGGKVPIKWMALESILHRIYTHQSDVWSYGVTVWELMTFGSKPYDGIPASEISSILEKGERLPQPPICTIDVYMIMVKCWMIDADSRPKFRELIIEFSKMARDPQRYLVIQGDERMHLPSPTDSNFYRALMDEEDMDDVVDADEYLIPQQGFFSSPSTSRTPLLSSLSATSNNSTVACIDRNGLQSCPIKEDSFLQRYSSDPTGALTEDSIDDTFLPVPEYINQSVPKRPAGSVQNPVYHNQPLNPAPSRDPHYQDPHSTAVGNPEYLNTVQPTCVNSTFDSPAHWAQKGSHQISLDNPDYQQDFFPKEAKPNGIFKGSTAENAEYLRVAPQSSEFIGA
Protocol: as §3, §4, §5

EGFR Exon19Del/T790M = target: T4, EGFR Exon19Del/T790M (Homo sapiens, UniProt P00533, DEL746-750/T790M); assay: Inhibition of EGFR Exon19Del/T790M biochemical enzymatic activity (HTRF); details: EGFR Exon19Del/T790M, 1 mM ATP, 1 h at room temperature, read-out: IC50 @Del19-T790M
T4 construct: purchased Carna Bio
T4 sequence (P00533 with tags, fused parts or gaps DEL746-750/T790M limits assumed): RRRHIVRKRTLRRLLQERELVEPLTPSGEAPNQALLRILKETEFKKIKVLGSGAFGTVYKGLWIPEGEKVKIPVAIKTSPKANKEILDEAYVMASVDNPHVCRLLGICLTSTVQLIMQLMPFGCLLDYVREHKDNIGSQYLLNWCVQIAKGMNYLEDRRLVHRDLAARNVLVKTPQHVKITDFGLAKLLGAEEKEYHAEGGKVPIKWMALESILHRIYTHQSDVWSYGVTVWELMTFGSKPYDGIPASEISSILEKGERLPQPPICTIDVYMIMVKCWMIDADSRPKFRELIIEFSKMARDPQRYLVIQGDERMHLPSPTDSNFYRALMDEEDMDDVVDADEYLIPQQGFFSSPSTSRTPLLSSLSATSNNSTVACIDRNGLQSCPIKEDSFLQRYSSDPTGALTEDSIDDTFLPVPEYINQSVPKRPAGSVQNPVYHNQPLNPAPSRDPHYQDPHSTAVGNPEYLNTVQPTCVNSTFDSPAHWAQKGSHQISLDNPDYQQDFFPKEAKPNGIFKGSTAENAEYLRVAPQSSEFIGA
Protocol: as §3, §4, §5

[2] = target: T5, EGFR[T790M/C797S/d746-750] (Homo sapiens, UniProt P00533, C797S/DEL746-750/T790M); assay: Inhibition of EGFR[T790M/C797S/d746-750] biochemical enzymatic activity (HTRF); details: EGFR[T790M/C797S/d746-750], 1 mM ATP, 1 h at room temperature, read-out: IC50 @T790M - C797S - Del19
T5 construct: purchased Carna Bio
T5 sequence (P00533 with tags, fused parts or gaps DEL746-750/T790M/C797S limits assumed): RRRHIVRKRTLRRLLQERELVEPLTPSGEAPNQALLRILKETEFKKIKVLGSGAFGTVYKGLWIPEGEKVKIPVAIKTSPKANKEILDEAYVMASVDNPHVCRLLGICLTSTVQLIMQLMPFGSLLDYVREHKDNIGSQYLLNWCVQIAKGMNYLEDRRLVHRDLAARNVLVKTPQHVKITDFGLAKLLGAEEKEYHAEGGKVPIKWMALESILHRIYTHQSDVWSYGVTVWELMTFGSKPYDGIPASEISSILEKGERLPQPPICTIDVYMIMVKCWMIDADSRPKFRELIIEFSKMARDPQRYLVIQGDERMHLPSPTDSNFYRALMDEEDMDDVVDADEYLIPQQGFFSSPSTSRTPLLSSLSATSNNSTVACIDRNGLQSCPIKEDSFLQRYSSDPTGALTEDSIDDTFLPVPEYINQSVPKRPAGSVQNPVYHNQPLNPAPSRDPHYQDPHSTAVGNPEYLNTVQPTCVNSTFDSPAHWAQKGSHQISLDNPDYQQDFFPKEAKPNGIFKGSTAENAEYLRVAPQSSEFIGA
Protocol: as §3, §4, §5

EGFR (C797S L858R) = target: T6, EGFR (C797S L858R) (Homo sapiens, UniProt P00533, C797S/L858R); assay: Inhibition of EGFR (C797S L858R) biochemical enzymatic activity (HTRF); details: EGFR (C797S L858R), 1 mM ATP, 1 h at room temperature, read-out: IC50 @L858-C797S
T6 construct: purchased signalchem
Protocol: as §3, §4, §5

EGFR[T790M/C797S/L858R] = target: T7, EGFR[T790M/C797S/L858R] (Homo sapiens, UniProt P00533, C797S/L858R/T790M); assay: Inhibition of EGFR[T790M/C797S/L858R] biochemical enzymatic activity (HTRF); details: EGFR[T790M/C797S/L858R], 1 mM ATP, 1 h at room temperature, read-out: IC50 @T790M- C797S - L858R
T7 construct: purchased Carna Bio
Protocol: as §3, §4, §5

EGFR Exon19Del = target: T8, EGFR Exon19Del (Homo sapiens, UniProt P00533, DEL746-750); assay: Inhibition of EGFR Exon19Del biochemical enzymatic activity (HTRF); details: EGFR Exon19Del, 1 mM ATP, 1 h at room temperature, read-out: IC50 @Del19
T8 construct: purchased Carna Bio
T8 sequence (P00533 with tags, fused parts or gaps DEL746-750 limits assumed): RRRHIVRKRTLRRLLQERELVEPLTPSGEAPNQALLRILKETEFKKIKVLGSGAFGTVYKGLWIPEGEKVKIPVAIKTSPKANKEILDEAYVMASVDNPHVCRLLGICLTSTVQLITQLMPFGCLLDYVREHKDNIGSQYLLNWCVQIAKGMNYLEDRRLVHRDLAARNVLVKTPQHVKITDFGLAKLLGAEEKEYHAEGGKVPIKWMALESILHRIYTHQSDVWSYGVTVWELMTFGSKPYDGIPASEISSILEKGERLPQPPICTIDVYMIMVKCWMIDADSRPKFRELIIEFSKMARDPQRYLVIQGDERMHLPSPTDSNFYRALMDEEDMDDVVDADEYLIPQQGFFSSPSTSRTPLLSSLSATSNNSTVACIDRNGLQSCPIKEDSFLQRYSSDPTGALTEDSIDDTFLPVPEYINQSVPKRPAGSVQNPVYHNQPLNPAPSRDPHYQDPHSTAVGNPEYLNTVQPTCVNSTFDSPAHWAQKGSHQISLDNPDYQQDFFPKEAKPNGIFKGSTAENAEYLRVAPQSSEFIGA
Protocol: as §3, §4, §5

[3] = CellTiter-Glo, read-out: PC9 GI50
[4] = BaF3 cells, EGFR DEL19-C797S, CellTiter-Glo, read-out: DEL19-C797S/BaF3 GI50
[5] = BaF3 cells, EGFR DEL19-T790-C797S, CellTiter-Glo, read-out: DEL19-T790-C797S/BaF3 GI50
[6] = BaF3 cells, EGFR L858R, CellTiter-Glo, read-out: L858R/BaF3 GI50
[7] = BaF3 cells, EGFR L858R-C797S, CellTiter-Glo, read-out: L858R-C797S/BaF3 GI50
[8] = BaF3 cells, EGFR L858R-T790-C797S, CellTiter-Glo, read-out: L858R-T790-C797S/BaF3 GI50
[9] = BaF3 cells, EGFR L858R-T790M, CellTiter-Glo, read-out: L858R-T790M/BaF3 GI50
[10] = EGFR DEL19-T790M, CellTiter-Glo, read-out: DEL19-T790M GI50

SMILES	GI50 (PC-9; [3])	GI50 [1, 4]	GI50 [1, 5]	GI50 [1, 6]	GI50 [1, 7]	GI50 [1, 8]	GI50 [1, 9]	GI50 [1, 10]	other results
CN(C)[C@H]1CCN(c2ccc3nc4n(c3c2)C23CCC(CN(CCOc5c(cnn5C)-c5cc(cn(C)c5=O)C(=O)N4)C2)C3)C1 (single isomer, unassigned) [Example A66A]	705 nM	177 nM	466 nM	1140 nM	709 nM	600 nM	2130 nM	622 nM	
CN(C)[C@@H]1CCN(c2ccc3nc4n(c3c2)C23CCC(CN(CCOc5c(cnn5C)-c5cc(cn(C)c5=O)C(=O)N4)C2)C3)C1 (single isomer, unassigned) [Example A66C]	703 nM	156 nM	548 nM	1580 nM	688 nM	549 nM	1520 nM	723 nM	
CN(C)CC1(F)CN(c2ccc3nc4n(c3c2)C23CCC(CN(CCOc5c(cnn5C)-c5cc(cn(C)c5=O)C(=O)N4)C2)C3)C1 (single isomer, unassigned) [Example A72A]	1060 nM	351 nM	1060 nM	866 nM	632 nM	1820 nM	2770 nM	1230 nM	
Cc1cc2cc(n1)-c1cnn(C)c1OCCN1CC3CCC(C3)(C1)n1c(nc3ccc(N4CCC(N5CCOCC5)C4)cc31)NC2=O (single isomer, unassigned) [Example B44A]									GI50 (PC-9; read-out: GI50 PC9): 1400 nM; IC50 (EGFR L858R/T790M): > 5000 nM; IC50 (EGFR L858R): > 5000 nM; IC50 (EGFR (d746-750 C797S)): > 5000 nM; IC50 (EGFR Exon19Del/T790M): > 5000 nM; IC50 [2]: 4640 nM; IC50 (EGFR (C797S L858R)): > 5000 nM; GI50 ([1]; BaF3 cells, EGFR DEL19 - C797S, read-out: GI50 DEL19 - C797S/BaF3): 312 nM; GI50 ([1]; BaF3 cells, EGFR DEL19 - T790-C797S, read-out: GI50 DEL19 - T790-C797S/BaF3): 321 nM; GI50 ([1]; BaF3 cells, EGFR L858R - C797S, read-out: GI50 L858R - C797S/BaF3): 624 nM; GI50 ([1]; BaF3 cells, EGFR L858R - T790-C797S, read-out: GI50 L858R - T790-C797S/BaF3): 52 nM; GI50 ([1]; BaF3 cells, EGFR L858R - T790M, read-out: GI50 L858R - T790M/BaF3): 326 nM; GI50 ([1]; BaF3 cells, EGFR L858R, read-out: GI50 L858R/BaF3): 3000 nM; GI50 ([1]; EGFR DEL19 - T790M, read-out: GI50 DEL19 - T790M): 368 nM; IC50 (EGFR[T790M/C797S/L858R]): > 5000 nM; IC50 (EGFR Exon19Del): > 5000 nM
C[C@@H]1CCCOc2c(cnn2C)-c2cc(cn(C3CC3)c2=O)C(=O)Nc2nc3ccc(N4CCN(C)CC4)cc3n2C1 [Example A15, (11R)-26-cyclopropyl-5,11-dimethyl-16-(4-methylpiperazin-1-yl)-7-oxa-4,5,13,20,22,26-hexaazapentacyclo[22.3.1.0^{2,6}.0^{13,21}.0^{14,19}]octacosa-1(28),2(6),3,14,16,18,20,24-octaene-23,27-dione]									GI50 (PC-9; Homo sapiens, PC-9, 72 h, CellTiter-Glo, read-out: PC9 GI50): 2070 nM; GI50 ([1]; Mus musculus, BaF3, 72 h, BaF3 cells, EGFR DEL19-C797S, CellTiter-Glo, read-out: DEL19-C797S/BaF3 GI50): 495 nM; GI50 ([1]; Mus musculus, BaF3, 72 h, BaF3 cells, EGFR DEL19-T790-C797S, CellTiter-Glo, read-out: DEL19-T790-C797S/BaF3 GI50): 2100 nM; GI50 ([1]; Mus musculus, BaF3, 72 h, BaF3 cells, EGFR L858R, CellTiter-Glo, read-out: L858R/BaF3 GI50): 1390 nM; GI50 ([1]; Mus musculus, BaF3, 72 h, BaF3 cells, EGFR L858R-C797S, CellTiter-Glo, read-out: L858R-C797S/BaF3 GI50): 1580 nM; GI50 ([1]; Mus musculus, BaF3, 72 h, BaF3 cells, EGFR L858R-T790-C797S, CellTiter-Glo, read-out: L858R-T790-C797S/BaF3 GI50): 4910 nM; GI50 ([1]; Mus musculus, BaF3, 72 h, BaF3 cells, EGFR L858R-T790M, CellTiter-Glo, read-out: L858R-T790M/BaF3 GI50): 1550 nM; GI50 ([1]; Mus musculus, BaF3, 72 h, EGFR DEL19-T790M, CellTiter-Glo, read-out: DEL19-T790M GI50): 2620 nM

Continued, in another order:

GI50 (PC-9; [3])	GI50 [1, 4]	GI50 [1, 5]	GI50 [1, 6]	GI50 [1, 7]	GI50 [1, 8]	GI50 [1, 9]	GI50 [1, 10]	SMILES	other results
515 nM	94 nM	302 nM	550 nM	357 nM	184 nM	1100 nM	190 nM	CN1CC2(CCN(c3ccc4nc5n(c4c3)C34CCC(CN(CCOc6c(cnn6C)-c6cc(cn(C)c6=O)C(=O)N5)C3)C4)C2)C1 (single isomer, unassigned) [Example A73A]	
295 nM	135 nM	587 nM	312 nM	193 nM	523 nM	450 nM	477 nM	CN1CCN(C2CCN(c3ccc4nc5n(c4c3)C34CCC(CN(CCOc6c(cnn6C)-c6cc(cn(C)c6=O)C(=O)N5)C3)C4)C2)CC1 (single isomer, unassigned) [Example A80A, 15,21-Dimethyl-5-[3-(4-methylpiperazin-1-yl)pyrrolidin-1-yl]-23-oxa-2,9,11,15,20,21,26-heptaazaheptacyclo[24.4.1.1^{1,28}.1^{13,17}.0^{2,10}.0^{3,8}.0^{18,22}]tritriaconta-3,5,7,9,13,17(33),18(22),19-octaene-12,16-dione]	
3.6 nM	0.5 nM	0.7 nM	0.63 nM	0.5 nM	0.73 nM	0.67 nM	0.7 nM	CN1CCN(C2CCN(c3ccc4nc5n(c4c3)C34CCC(CN(CCOc6c(cnn6C)-c6cc(cn(C)c6=O)C(=O)N5)C3)C4)C2)CC1 (single isomer, unassigned) [Example A80B2, 15,21-Dimethyl-5-[3-(4-methylpiperazin-1-yl)pyrrolidin-1-yl]-23-oxa-2,9,11,15,20,21,26-heptaazaheptacyclo[24.4.1.1^{1,28}.1^{13,17}.0^{2,10}.0^{3,8}.0^{18,22}]tritriaconta-3,5,7,9,13,17(33),18(22),19-octaene-12,16-dione]	
